Patent US20250388602A1 (Genase Therapeutics B.V., priority 2022, published 2025)
Read-outs that look alike come from different tables or passages of the source.

Experiments:
[1] = in vitro; details: for HLM % remaining: % remaining at 60 min, 1 μM; for half-life at 1 μM: both, human
Protocol: Human Liver Microsomal metabolic stability: The microsomal metabolic stability assay utilized pooled human liver microsomes (mixed gender, BD Gentest), with supplemented cofactors NADPH and UDPGA (Solarbio S&T Co., LTD). Two separate experiments were performed as follows: • a) With cofactors (NADPH & UDPGA): 25 μL of 10 mM NADPH and 25 μL of 20 mM UDPGA were added to 197.5 μL of reaction solution (phosphate buffer (final concentration in assay 100 mM), MgCl2 (final concentration in assay (5 mM)), alamethacin (final concentration in assay 0.025 mg/mL) and microsomes (final concentration in assay 0.5 mg/mL). • b) Without cofactors (NADPH & UDPGA): 50 μL of H2O was added to 197.5 μL of reaction solution.
The mixture was pre-warmed at 37° C. for 10 minutes. The reaction was started with the addition of 2.5 μL of 100 μM control compound or test compound solutions. Diclofenac was used as positive control in this study. The final concentration of control compound and test compounds was 1 μM. Aliquots of 25 μL were taken from the reaction solution at 0.5, 5, 15, 30 and 60 minutes. The reaction was stopped by the addition of 5 volumes of cold acetonitrile containing internal standards. Samples were centrifuged at 3,220 g for 40 minutes. An aliquot of 100 μL of the supernatant was mixed with 100 μL of ultra-pure H2O and then used for LC-MS/MS analysis. Peak areas were determined from extracted ion chromatograms. Percent parent remaining was calculated from the area ratio of test compound. The slope value was determined by linear regression of the natural logarithm of percent parent remaining versus incubation time curve.
(§1) Peak areas were determined from extracted ion chromatograms to determine the in vitro half-life (t½) of parent compound by regression analysis of the percent parent disappearance vs. time curve. The in vitro half-life (in vitro t½) was determined from the slope value (in vitro t½=−0.693/k). All calculations were carried out using Microsoft Excel.

[2] = biological target: recombinant human DHODH (Homo sapiens (Human), UniProt Q02127); experiment: DHODH enzyme assay (Assay A), DCIP absorbance; assay type: biochemical; details: bins ≥10 nM-<100 nM and <10 nM; read-out: IC50 DHODH inhibition activity
Sequence of recombinant human DHODH (Q02127 whole entry): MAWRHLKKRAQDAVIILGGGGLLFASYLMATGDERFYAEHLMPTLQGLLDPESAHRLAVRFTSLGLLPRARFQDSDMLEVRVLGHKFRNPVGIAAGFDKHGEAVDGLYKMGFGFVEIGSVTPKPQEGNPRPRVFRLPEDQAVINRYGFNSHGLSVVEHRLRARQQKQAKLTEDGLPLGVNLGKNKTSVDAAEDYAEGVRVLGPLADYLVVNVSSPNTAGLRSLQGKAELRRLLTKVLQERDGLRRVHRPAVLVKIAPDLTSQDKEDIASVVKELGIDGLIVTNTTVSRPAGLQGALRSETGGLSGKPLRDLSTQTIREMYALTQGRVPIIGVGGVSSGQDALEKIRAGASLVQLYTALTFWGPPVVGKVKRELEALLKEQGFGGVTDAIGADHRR
Protocol: Inhibition of human dihydroorotate dehydrogenase (DHODH) by example compounds as described herein was determined using one of two assays as described below.
DHODH enzyme assays were performed with 6 nM recombinant human DHODH (purified essentially as described by Walse et al., Biochemistry, 47, 8929-8936 (2008)). The reaction mixture consisted of 1 mM DL-dihydroorotic acid (#D7003, Sigma-Aldrich), 100 μM 3,4-dimethoxy-5-methyl-p-benzoquinone (#D9150, Sigma-Aldrich), and 100 μM 2,6-dichlorophenolindophenol sodium salt (DCIP) (#D1878, Sigma-Aldrich) in enzyme buffer (50 mM Tris-HCl pH 8.0, 0.1% Triton X-100, 150 mM KCl). A stock solution of 20 mM DCIP was prepared in enzyme buffer and filtered through Whatman paper just before use. Reactions were performed in a total volume of 100 μL, consisting of 1 μL of compound, 49 μL of enzyme and 50 μL of reaction mixture. Loss in absorbance by chromogen DCIP was measured at 595 nm following a 70 minute incubation at 32° C.

[3] = test system: MOLM-13 cells; experiment: MOLM-13 cell viability (Assay B), Cell Titer-Glo; assay type: cell-based; details: for IC50: Homo sapiens, read-out: IC50 MOLM13 inhibition activity
Protocol: MOLM-13 cells (an acute myeloid leukemia cell line) were plated in RPMI supplied with 10% FBS and 1% Pen/Strep in 384-well plates at 1,000 cells per well on day 0. On day 1, treatment of the cells with compound (concentration range 10E-5 and 6E-12 M) was initiated in the presence or absence of 100 μM uridine. After 72 hours incubation of the cells with or without test compound, the number of viable cells per well was assessed by Cell Titer-Glo Luminescent Cell Viability Assay (Promega, Madison, WI, USA). […] Each condition was tested in duplicate and the potency of test compounds was determined from two independent experiments.

[4] = in vitro; details: for hHEPs % remaining: 1 μM
Protocol: Human Hepatocyte metabolic stability: Human hepatocytes (X008000, BioIVT) were freshly thawed prior to the incubations with test compound. Hepatocytes were transferred to 50 mL conical tubes and centrifuged 10 min at 100 g. Thawing medium was removed and replaced by preheated (37° C.) incubation medium (William's E Medium supplemented with GlutaMAX), to yield a hepatocyte density ˜1.5×10^6 cells/mL. Cell viability was determined using AO/PI staining and hepatocytes were diluted using incubation medium to a working density of 0.5×10^6 viable cells/mL. 198 μL of hepatocytes were added into each well of a 96-well plate and placed in the incubator to allow the hepatocytes to warm for 10 minutes. 2 μL test compound or positive control was placed into respective wells of the 96-well plate (final concentration test compound 1 μM) to start the reaction. The plate was returned to the incubator and 25 μL aliquots of the well contents were removed at time points of 0, 15, 30, 60, 90 and 120 minutes. The aliquots were mixed with 6 volumes (150 μL) of acetonitrile containing internal standards (100 nM alprazolam, 200 nM caffeine, and 100 nM tolbutamide) to terminate the reaction. The plate was centrifuged for 20 minutes at 3,200 g. Aliquots of 150 μL of the supernatants were used for LC/MS/MS analysis. All incubations were performed in duplicate.
as §1

[5] = MOLM-13, 72 hours, bins ≥10 nM-<100 nM and <10 nM

SMILES | HLM % remaining [1] [%] | half-life at 1 μM ([1]; pooled liver microsomes) [h] | IC50 [2] [nM] | IC50 [3, 5] [nM] | half-life at 1 μM ([4]; human, hepatocytes) [h] | hHEPs % remaining ([4]; human, hepatocytes, 2 h) [%] | hHEPs % remaining ([4]; % remaining at 120 min) | half-life at 1 μM ([1]; microsomes) [h] | IC50 ([3]; MOLM-13, 72 h) [nM] | MOLM13 cell growth and/or viability (FIG. 2) ([3]; absence of uridine) | effect on MOLM13 cell growth and/or viability on addition of excess uridine (FIG. 2) ([3]; presence of 100 μM uridine)
Cc1ccc(Cl)c(-n2ncc3c2COC[C@H]3NC(=O)c2ncn3c2CCCC3)c1 [Ex-53, (S)—N-(1-(2-chloro-5-methylphenyl)-1,4,5,7-tetrahydropyrano[3,4-c]pyrazol-4-yl)-5,6,7,8-tetrahydroimidazo[1,5-a]pyridine-1-carboxamide] | 96 | > 6.08 | 10 to 100 | 10 to 100 | > 10 |  | 99% |  |  |  | 
CC(C)OC(=O)c1cccc(-n2ncc3c2COC[C@H]3NC(=O)c2ncn3c2CCCC3)c1Cl [Ex-69, Isopropyl (S)-2-chloro-3-(4-(5,6,7,8-tetrahydroimidazo[1,5-a]pyridine-1-carboxamido)-4,7-dihydropyrano[3,4-c]pyrazol-1(5H)-yl)benzoate] | 0.14 |  | < 10 |  | 0.0767 |  | BLOD@ | 0.122 | < 10 |  | 
COc1cccc(C)c1-n1ncc2c1COC[C@H]2NC(=O)c1ncn2c1CCCC2 [Ex-61, (S)—N-(1-(2-methoxy-6-methylphenyl)-1,4,5,7-tetrahydropyrano[3,4-c]pyrazol-4-yl)-5,6,7,8-tetrahydroimidazo[1,5-a]pyridine-1-carboxamide] | 94 | > 6.08 | 10 to 100 | 10 to 100 | > 10 |  | 100% |  |  |  | 
O=C(N[C@@H]1COCc2c1cnn2-c1c(F)cccc1F)c1ncn2c1CCCC2 [Ex-59, (S)—N-(1-(2,6-difluorophenyl)-1,4,5,7-tetrahydropyrano[3,4-c]pyrazol-4-yl)-5,6,7,8-tetrahydroimidazo[1,5-a]pyridine-1-carboxamide] | 91 | > 6.08 | 10 to 100 | 10 to 100 | > 10 |  | 100% |  |  |  | 
Cc1cnc(C(=O)N[C@@H]2COCc3c2cnn3-c2c(F)cccc2Cl)cc1C [Ex-48, (S)—N-(1-(2-chloro-6-fluorophenyl)-1,4,5,7-tetrahydropyrano[3,4-c]pyrazol-4-yl)-4,5-dimethylpicolinamide] | 96 | 6.08 | 10 to 100 | 10 to 100 | 5.97 |  | 82% |  |  |  | 
O=C(N[C@@H]1COCc2c1cnn2-c1ccccc1F)c1noc2c1CCCC2 [Ex-43, (S)—N-(1-(2-fluorophenyl)-1,4,5,7-tetrahydropyrano[3,4-c]pyrazol-4-yl)-4,5,6,7-tetrahydrobenzo[d]isoxazole-3-carboxamide] | 92 | > 6.08 |  |  | > 10 |  | 93% |  |  |  | 

Second part, led by results:

HLM % remaining [1] [%] | half-life at 1 μM ([1]; pooled liver microsomes) [h] | IC50 [2] [nM] | IC50 [3, 5] [nM] | half-life at 1 μM ([4]; human, hepatocytes) [h] | hHEPs % remaining ([4]; human, hepatocytes, 2 h) [%] | hHEPs % remaining ([4]; % remaining at 120 min) | SMILES | half-life at 1 μM ([1]; microsomes) [h] | IC50 ([3]; MOLM-13, 72 h) [nM] | MOLM13 cell growth and/or viability (FIG. 2) ([3]; absence of uridine) | effect on MOLM13 cell growth and/or viability on addition of excess uridine (FIG. 2) ([3]; presence of 100 μM uridine)
92 | > 6.08 | 10 to 100 | 10 to 100 | 9.97 | 87 |  | O=C(N[C@@H]1COCc2c1cnn2-c1ccccc1F)c1ncn2c1CCCC2 (single isomer, unassigned) [Ex-3] |  |  |  | 
84 | 4.52 | 10 to 100 | 10 to 100 | > 10 | 100 |  | Cc1ccccc1-n1ncc2c1COC[C@H]2NC(=O)c1ncn2c1CCCC2 [Ex-52, (S)—N-(1-(o-tolyl)-1,4,5,7-tetrahydropyrano[3,4-c]pyrazol-4-yl)-5,6,7,8-tetrahydroimidazo[1,5-a]pyridine-1-carboxamide] |  |  |  | 
87 | 4.58 | 10 to 100 | 10 to 100 | > 10 |  | 100% | Cc1cccc(F)c1-n1ncc2c1COC[C@H]2NC(=O)c1ncn2c1CCCC2 [Ex-58, (S)—N-(1-(2-fluoro-6-methylphenyl)-1,4,5,7-tetrahydropyrano[3,4-c]pyrazol-4-yl)-5,6,7,8-tetrahydroimidazo[1,5-a]pyridine-1-carboxamide] |  |  |  | 
94 | > 6.08 | 10 to 100 | 10 to 100 | > 10 | 100 |  | O=C(N[C@@H]1COCc2c1cnn2-c1ccccc1C(F)(F)F)c1ncn2c1CCCC2 [Ex-55, (S)—N-(1-(2-(trifluoromethyl)phenyl)-1,4,5,7-tetrahydropyrano[3,4-c]pyrazol-4-yl)-5,6,7,8-tetrahydroimidazo[1,5-a]pyridine-1-carboxamide] |  |  |  | 
90 | > 6.08 | 10 to 100 | 10 to 100 | > 10 |  | 89% | O=C(N[C@@H]1COCc2c1cnn2-c1c(F)cccc1Cl)c1n[nH]c2c1CCCC2 [Ex-46, (S)—N-(1-(2-chloro-6-fluorophenyl)-1,4,5,7-tetrahydropyrano[3,4-c]pyrazol-4-yl)-4,5,6,7-tetrahydro-1H-indazole-3-carboxamide] |  |  |  | 
75 | 2.22 | < 10 | < 10 | 9 |  | 84% | O=C(N[C@@H]1COCc2c1cnn2-c1c(F)cccc1Cl)c1ncc2n1CCCC2 [Ex-47, (S)—N-(1-(2-chloro-6-fluorophenyl)-1,4,5,7-tetrahydropyrano[3,4-c]pyrazol-4-yl)-5,6,7,8-tetrahydroimidazo[1,5-a]pyridine-3-carboxamide] |  |  |  | 
92 | > 6.08 | 10 to 100 | 10 to 100 | > 10 |  | 100% | COc1ccccc1-n1ncc2c1COC[C@H]2NC(=O)c1ncn2c1CCCC2 [Ex-54, (S)—N-(1-(2-methoxyphenyl)-1,4,5,7-tetrahydropyrano[3,4-c]pyrazol-4-yl)-5,6,7,8-tetrahydroimidazo[1,5-a]pyridine-1-carboxamide] |  |  |  | 
93 | > 6.08 | < 10 | < 10 | > 10 |  | 90% | O=C(N[C@@H]1COCc2c1cnn2-c1c(F)cccc1Cl)c1ncn2c1CCCC2 (single isomer, unassigned) [Ex-11] |  |  | reduce MOLM13 cell growth and/or viability | largely prevented
